Source: US7951824B2, “4-aryl-pyridine-2-carboxyamide derivatives” (Hoffman-La Roche Inc., priority 2006, dated 2011)

Target: T1, human mGlu 5a receptor (Homo sapiens, UniProt P41594)
T1 construct: expressed in transfected cells; host or cells: EBNA cells (transient transfection), membrane homogenates
Experiment: [3H]MPEP competition binding on membranes of EBNA cells transfected with human mGlu 5a receptor
Conditions: competition with [3H]MPEP (2 nM), 1 h at 4° C., EBNA cell membranes
Description: The pharmacological activity of the compounds was tested using the following method: For binding experiments, cDNA encoding human mGlu 5a receptor was transiently transfected into EBNA cells using a procedure described by Schlaeger and Christensen [Cytotechnology 15:1-13 (1998)]. Cell membrane homogenates were stored at −80° C. until the day of assay where upon they were thawed and resuspended and polytronised in 15 mM Tris-HCl, 120 mM NaCl, 100 mM KCl, 25 mM CaCl2, 25 mM MgCl2 binding buffer at pH 7.4 to a final assay concentration of 20 μg protein/well.
Saturation isotherms were determined by addition of twelve [^3H] MPEP concentrations (0.04-100 nM) to these membranes (in a total volume of 200 μd) for 1 h at 4° C. Competition experiments were performed with a fixed concentration of [^3H]MPEP (2 nM) and IC50 values of test compounds evaluated using 11 concentrations (0.3-10,000 nM). Incubations were performed for 1 h at 4° C.
At the end of the incubation, membranes were filtered onto unifilter (96-well white microplate with bonded GF/C filter preincubated 1 h in 0.1% PEI in wash buffer, Packard Bio-Science, Meriden, Conn.) with a Filtermate 96 harvester (Packard BioScience) and washed 3 times with cold 50 mM Tris-HCl, pH 7.4 buffer. Nonspecific binding was measured in the presence of 10 μM MPEP. The radioactivity on the filter was counted (3 min) on a Packard Top-count microplate scintillation counter with quenching correction after addition of 45 μl of microscint 40 (Canberra Packard S. A., Zürich, Switzerland) and shaking for 20 min.
For binding experiments the Ki values of the compounds tested are given. The Ki value is defined by the following formula: KiIC50/[1+L/Kd] in which the IC50 values are those concentrations of the compounds tested which cause 50% inhibition of the competing radioligand ([^3H]MPEP). L is the concentration of radioligand used in the binding experiment and the Kd value of the radioligand is empirically determined for each batch of membranes prepared.

T1 sequence (P41594 21-1180 isoform P41594-2 limits assumed): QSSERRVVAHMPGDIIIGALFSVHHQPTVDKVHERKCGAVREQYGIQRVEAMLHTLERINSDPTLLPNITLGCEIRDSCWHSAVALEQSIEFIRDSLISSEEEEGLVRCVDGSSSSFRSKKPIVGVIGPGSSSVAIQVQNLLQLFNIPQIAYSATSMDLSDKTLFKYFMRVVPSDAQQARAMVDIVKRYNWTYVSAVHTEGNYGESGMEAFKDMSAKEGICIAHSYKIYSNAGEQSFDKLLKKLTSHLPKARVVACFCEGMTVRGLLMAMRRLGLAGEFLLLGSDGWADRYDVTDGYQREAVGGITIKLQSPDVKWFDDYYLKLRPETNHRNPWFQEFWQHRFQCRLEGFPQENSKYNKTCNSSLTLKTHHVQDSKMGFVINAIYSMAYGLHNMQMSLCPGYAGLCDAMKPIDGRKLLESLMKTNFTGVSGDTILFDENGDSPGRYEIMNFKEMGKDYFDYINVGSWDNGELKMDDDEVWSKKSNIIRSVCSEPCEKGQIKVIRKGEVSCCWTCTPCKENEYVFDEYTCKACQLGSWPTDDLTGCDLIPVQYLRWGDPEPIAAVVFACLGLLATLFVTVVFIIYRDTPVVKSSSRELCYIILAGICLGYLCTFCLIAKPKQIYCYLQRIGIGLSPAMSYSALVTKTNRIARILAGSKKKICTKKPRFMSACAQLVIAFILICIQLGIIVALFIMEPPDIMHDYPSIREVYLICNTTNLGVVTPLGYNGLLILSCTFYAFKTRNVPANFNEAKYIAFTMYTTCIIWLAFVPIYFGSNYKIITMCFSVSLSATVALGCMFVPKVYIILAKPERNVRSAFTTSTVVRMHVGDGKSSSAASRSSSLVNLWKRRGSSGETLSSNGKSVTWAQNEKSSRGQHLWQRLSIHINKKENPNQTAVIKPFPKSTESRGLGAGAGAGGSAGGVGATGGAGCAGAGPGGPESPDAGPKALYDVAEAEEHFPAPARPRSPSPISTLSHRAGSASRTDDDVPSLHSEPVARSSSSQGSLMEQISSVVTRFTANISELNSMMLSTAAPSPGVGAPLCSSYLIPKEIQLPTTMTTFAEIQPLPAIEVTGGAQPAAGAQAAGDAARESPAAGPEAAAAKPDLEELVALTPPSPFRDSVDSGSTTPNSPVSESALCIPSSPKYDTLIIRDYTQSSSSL

Row | Structure (SMILES) | Ki [nM]
1 | CCOC(=O)Cn1ccc(NC(=O)c2cc(-c3cc(F)cc(F)c3)cc(C)n2)n1 [Example 170, (3-{[4-(3,5-Difluorophenyl)-6-methyl-pyridine-2-carbonyl]-amino}-pyrazol-1-yl)-acetic acid ethyl ester] | 576
2 | Cc1cc(-c2cc(C)nn2C)c(C)c(C(=O)Nc2csc(C)n2)n1 [Example 109, 4-(2,5-Dimethyl-2H-pyrazol-3-yl)-3,6-dimethyl-pyridine-2-carboxylic acid (2-methyl-thiazol-4-yl)-amide] | 127
3 | Cc1cc(NC(=O)c2cc(-c3ccc(F)cc3)cc(C)n2)ccn1 [Example 28, 4-(4-Fluoro-phenyl)-6-methyl-pyridine-2-carboxylic acid (2-methyl-pyridin-4-yl)-amide] | 411
4 | Cc1cc(-c2ccc(F)cc2)cc(C(=O)Nc2ccc(F)cn2)n1 [Example 30, 4-(4-Fluoro-phenyl)-6-methyl-pyridine-2-carboxylic acid (5-fluoro-pyridin-2-yl)-amide] | 280
5 | Cc1cc(-c2cc(F)cc(F)c2)nc(C(=O)Nc2ccn(C)n2)n1 [Example 198, 4-(3,5-Difluoro-phenyl)-6-methyl-pyrimidine-2-carboxylic acid (1-methyl-1H-pyrazol-3-yl)-amide] | 181
6 | Cc1cc(-c2ccc(F)cc2)cc(C(=O)Nc2ccnc(C)n2)n1 [Example 32, 4-(4-Fluoro-phenyl)-6-methyl-pyridine-2-carboxylic acid (2-methyl-pyrimidin-4-yl)-amide] | 501
7 | Cc1cc(-c2ccc(F)cc2)cc(C(=O)Nc2ccnc(Cl)c2)n1 [Example 31, 4-(4-Fluoro-phenyl)-6-methyl-pyridine-2-carboxylic acid (2-chloro-pyridin-4-yl)-amide] | 620

Further lines, results first:

Row | Ki [nM] | Structure (SMILES)
8 | 90 | Cc1cc(NC(=O)c2cc(-c3cc(F)cc(F)c3)nc(C)n2)ccn1 [Example 37, 6-(3,5-Difluoro-phenyl)-2-methyl-pyrimidine-4-carboxylic acid (2-methyl-pyridin-4-yl)-amide]
9 | 55 | Cc1cc(-c2ccc(F)cc2)cc(C(=O)Nc2nc(C)cs2)n1 [Example 27, 4-(4-Fluoro-phenyl)-6-methyl-pyridine-2-carboxylic acid (4-methyl-thiazol-2-yl)-amide]
10 | 110 | Cc1cc(-c2cc(F)cc(F)c2)nc(C(=O)Nc2nc(C)cs2)n1 [Example 192, 4-(3,5-Difluoro-phenyl)-6-methyl-pyrimidine-2-carboxylic acid (4-methyl-thiazol-2-yl)-amide]
11 | 30 | Cc1cc(-c2cc(F)cc(F)c2)cc(C(=O)Nc2ccnc(C#N)c2)n1 [Example 169, 4-(3,5-Difluorophenyl)-6-methyl-pyridine-2-carboxylic acid (2-cyano-pyridin-4-yl)-amide]
12 | 29 | COc1cncc(-c2cc(C)nc(C(=O)Nc3csc(C)n3)c2)c1 [Example 56, 5-Methoxy-6′-methyl-[3,4′]bipyridinyl-2′-carboxylic acid (2-methyl-thiazol-4-yl)-amide]
13 | 79 | Cc1cc(-c2cc(F)cc(F)c2)cc(C(=O)Nc2nccc(Cl)n2)n1 [Example 167, 4-(3,5-Difluorophenyl)-6-methyl-pyridine-2-carboxylic acid (4-chloro-pyrimidin-2-yl)-amide]

Same assay, conditions: competition with [3H]MPEP (2 nM), 1 h at 4° C., EBNA cell membranes, head prints no unit

Row | Ki [nM] | Structure (SMILES)
14 | 244 | Cc1cc(-c2ccc(Cl)nc2)cc(C(=O)Nc2nc(C)cs2)n1 [Example 4, 6-Chloro-6′-methyl-[3,4′]bipyridinyl-2′-carboxylic add (4-methyl-thiazol-2-yl)-amide]
15 | 17 | Cc1cc(-c2cccc(CO)c2)cc(C(=O)Nc2nc(C)cs2)n1 [Example 15, 4-(3-Hydroxymethyl-phenyl)-6-methyl-pyridine-2-carboxylic acid (4-methyl-thiazol-2-yl)-amide]
16 | 10 | Cc1cc(-c2cc(F)c(F)c(F)c2)cc(C(=O)Nc2nc(C)cs2)n1 [Example 11, 6-Methyl-4-(3,4,5-trifluoro-phenyl)-pyridine-2-carboxylic acid (4-methyl-thiazol-2-yl)-amide]
